# In patent US20030086873A1, “Myocardial imaging agent and preparation method thereof” (priority 2001, published 2003):
# Legend:
# [1] = Biological distribution in the bodies of Kunming mice after caudal vein injection; assay type: in vivo
# Procedure: The complexes [^99mTc(CO)3(OH2)3]^+ and [^99mTc(CO)3(MIBI)3]^+ prepared in Example 1 were separately injected in the caudal vein of Kunming mice. The experiment was conducted on three mice within each time period, and the injection's activity was 925 KBq. The radioactivity of individual organs's tissue was measured at 5, 15, 30, and 60 minutes after the injection, and the results are represented by radioactive uptake rate per gram of tissue.
# The results of the distribution of [^99mTc(CO)3(OH2)3]^+ in the mice's bodies are included in Tables 2; the results for [^99mTc(CO)3(MIBI)3]^+ are presented in Table 3. The value “% ID/g” is the percentage of the injection's total radioactivity that each gram of tissue accounts for i.e., the radioactive uptake rate per gram of tissue, with ID standing for “injected dose.”
# [2] = Dynamic SPECT imaging and biological distribution in dogs after intravenous injection; assay type: in vivo; details: for Heart biological distribution / Kidneys biological distribution / Liver biological distribution / Lungs biological distribution: i.v.
# Procedure: Dogs were intravenously injected with [^99mTc(CO)3(MIBI)3]^+ or [^99mTc(MIBI)6][…]at dose of […]. Immediately following injection, dynamic photography for up to 120 min was performed using a Toshiba GCA 7200A two-probe SPECT and a low energy parallel aperture regular collimator. Time—radioactivity curves were also collected for the heart, liver, lungs, and kidneys. Target/non-target radioactivity ratios were calculated, and fall body imaging was performed separately at different times. The biological distributions of the imaging agents in the body were analyzed. Vein blood samples were collected separately at different times, and the dynamics of the blood clearance was analyzed. Flat myocardial imaging was conducted separately at different times, with myocardial tomographic imaging at 120 minutes post injection.
compound,measurement,setting,value
"[C-]#[N+]CC(C)(C)OC.[C-]#[N+]CC(C)(C)OC.[C-]#[N+]CC(C)(C)OC.[C-]#[N+]CC(C)(C)OC.[C-]#[N+]CC(C)(C)OC.[C-]#[N+]CC(C)(C)OC.[Tc] [[^99mTc(MIBI)6]^+, reference compound]",Target/Non-Target Uptake Ratio Heart/Blood,[1]; 5 Minutes,12.80
same,Target/Non-Target Uptake Ratio Heart/Liver,[1]; 5 Minutes,0.94
same,Target/Non-Target Uptake Ratio Heart/Lungs,[1]; 5 Minutes,2.87
same,Target/Non-Target Uptake Ratio Heart/Blood,[1]; 15 Minutes,35.09
same,Target/Non-Target Uptake Ratio Heart/Liver,[1]; 15 Minutes,0.76
same,Target/Non-Target Uptake Ratio Heart/Lungs,[1]; 15 Minutes,6.08
same,Target/Non-Target Uptake Ratio Heart/Blood,[1]; 30 Minutes,89.04
same,Target/Non-Target Uptake Ratio Heart/Liver,[1]; 30 Minutes,0.90
same,Target/Non-Target Uptake Ratio Heart/Lungs,[1]; 30 Minutes,9.07
same,Target/Non-Target Uptake Ratio Heart/Blood,[1]; 60 Minutes,134.15
same,Target/Non-Target Uptake Ratio Heart/Liver,[1]; 60 Minutes,1.04
same,Target/Non-Target Uptake Ratio Heart/Lungs,[1]; 60 Minutes,12.25
same,Target/Non-Target Uptake Ratio Heart/Kidneys,[2]; 2 Minutes,0.39
same,Target/Non-Target Uptake Ratio Heart/Liver,[2]; 2 Minutes,0.83
same,Target/Non-Target Uptake Ratio Heart/Lungs,[2]; 2 Minutes,2.35
same,Target/Non-Target Uptake Ratio Heart/Kidneys,[2]; 5 Minutes,0.48
same,Target/Non-Target Uptake Ratio Heart/Liver,[2]; 5 Minutes,0.83
same,Target/Non-Target Uptake Ratio Heart/Lungs,[2]; 5 Minutes,2.48
same,Target/Non-Target Uptake Ratio Heart/Kidneys,[2]; 10 Minutes,0.59
same,Target/Non-Target Uptake Ratio Heart/Liver,[2]; 10 Minutes,0.77
same,Target/Non-Target Uptake Ratio Heart/Lungs,[2]; 10 Minutes,2.66
same,Target/Non-Target Uptake Ratio Heart/Kidneys,[2]; 20 Minutes,0.45
same,Target/Non-Target Uptake Ratio Heart/Liver,[2]; 20 Minutes,0.85
same,Target/Non-Target Uptake Ratio Heart/Lungs,[2]; 20 Minutes,2.8
same,Target/Non-Target Uptake Ratio Heart/Kidneys,[2]; 30 Minutes,0.43
same,Target/Non-Target Uptake Ratio Heart/Liver,[2]; 30 Minutes,0.86
same,Target/Non-Target Uptake Ratio Heart/Lungs,[2]; 30 Minutes,2.68
same,Target/Non-Target Uptake Ratio Heart/Kidneys,[2]; 40 Minutes,0.43
same,Target/Non-Target Uptake Ratio Heart/Liver,[2]; 40 Minutes,0.87
same,Target/Non-Target Uptake Ratio Heart/Lungs,[2]; 40 Minutes,2.7
same,Target/Non-Target Uptake Ratio Heart/Kidneys,[2]; 60 Minutes,0.43
same,Target/Non-Target Uptake Ratio Heart/Liver,[2]; 60 Minutes,0.84
same,Target/Non-Target Uptake Ratio Heart/Lungs,[2]; 60 Minutes,2.84
same,Target/Non-Target Uptake Ratio Heart/Kidneys,[2]; 90 Minutes,0.46
same,Target/Non-Target Uptake Ratio Heart/Liver,[2]; 90 Minutes,0.8
same,Target/Non-Target Uptake Ratio Heart/Lungs,[2]; 90 Minutes,2.84
same,Target/Non-Target Uptake Ratio Heart/Kidneys,[2]; 120 Minutes,0.45
same,Target/Non-Target Uptake Ratio Heart/Liver,[2]; 120 Minutes,0.8
same,Target/Non-Target Uptake Ratio Heart/Lungs,[2]; 120 Minutes,2.73
same,Heart biological distribution,[2]; 20 Minutes,3.2 % ID/g
same,Kidneys biological distribution,[2]; 20 Minutes,14.3 % ID/g
same,Liver biological distribution,[2]; 20 Minutes,21.0 % ID/g
same,Lungs biological distribution,[2]; 20 Minutes,6.3 % ID/g
same,Heart biological distribution,[2]; 30 Minutes,3.5 % ID/g
same,Kidneys biological distribution,[2]; 30 Minutes,3.2 % ID/g
same,Liver biological distribution,[2]; 30 Minutes,10.3 % ID/g
same,Lungs biological distribution,[2]; 30 Minutes,6.5 % ID/g
same,Heart biological distribution,[2]; 40 Minutes,2.9 % ID/g
same,Kidneys biological distribution,[2]; 40 Minutes,12.3 % ID/g
same,Liver biological distribution,[2]; 40 Minutes,24.4 % ID/g
same,Lungs biological distribution,[2]; 40 Minutes,6.3 % ID/g
same,Heart biological distribution,[2]; 60 Minutes,3.3 % ID/g
same,Kidneys biological distribution,[2]; 60 Minutes,12.7 % ID/g
same,Liver biological distribution,[2]; 60 Minutes,25.1 % ID/g
same,Lungs biological distribution,[2]; 60 Minutes,5.5 % ID/g
same,Heart biological distribution,[2]; 90 Minutes,3.2 % ID/g
same,Kidneys biological distribution,[2]; 90 Minutes,13.2 % ID/g
same,Liver biological distribution,[2]; 90 Minutes,22.8 % ID/g
same,Lungs biological distribution,[2]; 90 Minutes,6.2 % ID/g
same,Heart biological distribution,[2]; 120 Minutes,3.5 % ID/g
same,Kidneys biological distribution,[2]; 120 Minutes,12.1 % ID/g
same,Liver biological distribution,[2]; 120 Minutes,25.2 % ID/g
same,Lungs biological distribution,[2]; 120 Minutes,5.2 % ID/g
same,Liver time-radioactivity curve relative to the myocardial curve,[2]; in words,higher than the myocardial curve
[^99mTc(CO)3(OH2)3]^+ [reference compound],Blood radioactive uptake per gram of tissue,[1]; 5 Minutes after injection,9.27 ± 1.13 % ID/g
same,Bones radioactive uptake per gram of tissue,[1]; 5 Minutes after injection,2.82 ± 0.95 % ID/g
same,Brain radioactive uptake per gram of tissue,[1]; 5 Minutes after injection,0.31 ± 0.09 % ID/g
same,Heart radioactive uptake per gram of tissue,[1]; 5 Minutes after injection,2.68 ± 0.88 % ID/g
same,Kidneys radioactive uptake per gram of tissue,[1]; 5 Minutes after injection,18.29 ± 4.22 % ID/g
same,Liver radioactive uptake per gram of tissue,[1]; 5 Minutes after injection,10.33 ± 0.82 % ID/g
same,Lungs radioactive uptake per gram of tissue,[1]; 5 Minutes after injection,6.53 ± 1.41 % ID/g
same,Muscles radioactive uptake per gram of tissue,[1]; 5 Minutes after injection,1.47 ± 0.37 % ID/g
same,Spleen radioactive uptake per gram of tissue,[1]; 5 Minutes after injection,2.02 ± 1.02 % ID/g
same,Blood radioactive uptake per gram of tissue,[1]; 15 Minutes after injection,6.04 ± 0.73 % ID/g
same,Bones radioactive uptake per gram of tissue,[1]; 15 Minutes after injection,1.68 ± 0.22 % ID/g
same,Brain radioactive uptake per gram of tissue,[1]; 15 Minutes after injection,0.27 ± 0.03 % ID/g
same,Heart radioactive uptake per gram of tissue,[1]; 15 Minutes after injection,2.39 ± 0.66 % ID/g
same,Kidneys radioactive uptake per gram of tissue,[1]; 15 Minutes after injection,14.25 ± 1.78 % ID/g
same,Liver radioactive uptake per gram of tissue,[1]; 15 Minutes after injection,11.95 ± 0.66 % ID/g
same,Lungs radioactive uptake per gram of tissue,[1]; 15 Minutes after injection,5.38 ± 0.76 % ID/g
same,Muscles radioactive uptake per gram of tissue,[1]; 15 Minutes after injection,1.46 ± 0.48 % ID/g
same,Spleen radioactive uptake per gram of tissue,[1]; 15 Minutes after injection,2.38 ± 0.37 % ID/g
same,Blood radioactive uptake per gram of tissue,[1]; 30 Minutes after injection,5.79 ± 0.66 % ID/g
same,Bones radioactive uptake per gram of tissue,[1]; 30 Minutes after injection,2.38 ± 0.54 % ID/g
same,Brain radioactive uptake per gram of tissue,[1]; 30 Minutes after injection,0.29 ± 0.06 % ID/g
same,Heart radioactive uptake per gram of tissue,[1]; 30 Minutes after injection,2.39 ± 0.56 % ID/g
same,Kidneys radioactive uptake per gram of tissue,[1]; 30 Minutes after injection,13.88 ± 1.02 % ID/g
same,Liver radioactive uptake per gram of tissue,[1]; 30 Minutes after injection,10.83 ± 1.68 % ID/g
same,Lungs radioactive uptake per gram of tissue,[1]; 30 Minutes after injection,5.37 ± 0.78 % ID/g
same,Muscles radioactive uptake per gram of tissue,[1]; 30 Minutes after injection,1.66 ± 0.61 % ID/g
same,Spleen radioactive uptake per gram of tissue,[1]; 30 Minutes after injection,2.94 ± 0.69 % ID/g
same,Blood radioactive uptake per gram of tissue,[1]; 60 Minutes after injection,4.50 ± 0.72 % ID/g
same,Bones radioactive uptake per gram of tissue,[1]; 60 Minutes after injection,1.65 ± 0.12 % ID/g
same,Brain radioactive uptake per gram of tissue,[1]; 60 Minutes after injection,0.22 ± 0.03 % ID/g
same,Heart radioactive uptake per gram of tissue,[1]; 60 Minutes after injection,2.08 ± 0.31 % ID/g
same,Kidneys radioactive uptake per gram of tissue,[1]; 60 Minutes after injection,12.28 ± 2.32 % ID/g
same,Liver radioactive uptake per gram of tissue,[1]; 60 Minutes after injection,10.73 ± 0.90 % ID/g
same,Lungs radioactive uptake per gram of tissue,[1]; 60 Minutes after injection,5.19 ± 1.18 % ID/g
same,Muscles radioactive uptake per gram of tissue,[1]; 60 Minutes after injection,1.37 ± 0.80 % ID/g
same,Spleen radioactive uptake per gram of tissue,[1]; 60 Minutes after injection,3.20 ± 0.80 % ID/g
same,Specific concentration in tissues / heart,[1]; in words,no specific concentration
same,Radioactive retention,"[1]; within 60 minutes, in words",good radioactive retention
